The numbers were not newly measured in patent US20220218650A1, “COMPOSITION AND METHOD FOR TREATING PAIN” (Zelira Therapeutics Operations Pty Ltd, priority 2018, published 2022), which cites them from elsewhere.

SMILES strings stand for the structures.

For the series the following is noted: treatment group (5 mg THC); control group 74 mg; difference not statistically significant (n=105).

With `CCCCCc1cc(O)c2c(c1)OC(C)(C)[C@@H]1CCC(C)=C[C@@H]21` [dronabinol], the “Median dose of micro-opioid agonist piritramide in the two days post surgery” value is 54 mg.
